Values of other authors, collected in patent US20070036859A1, “Sustained release antihistamine and decongestant composition” (priority 2005, published 2007).

Conditions: conventional tablets, oral

Structure (SMILES): CCOC(=O)N1CCC(=C2c3ccc(Cl)cc3CCc3cccnc32)CC1 [loratadine]
- duration of antihistaminic effect: > 24 h
- time to begin of antihistaminic effect after ingestion: one to three
